Experimental data as given in US12577273B2, “Small molecule modulators of gut bacterial bile acid metabolism” (priority 2019, dated 2026).
Entries after “also recorded” stand apart in the source; their conditions may differ. Where two headings read alike, the source gives them in different places.

Key:
conventional mice = test: Food intake of conventional mice dosed with 3S-LCA-FMK; format: in vivo, mouse; details: compared to mice dosed with vehicle
C57BL/6 mice [1] = details: for detection in circulating plasma: in vivo
[2] = tested on: BSH activity in conventional mouse feces; test: Screen of inhibitors in conventional mouse feces; format: biochemical
Experimental: Screen of Inhibitors in Conventional Mouse Feces. […] The tubes were then frozen in dry ice for 5 mins and upon thawing were diluted with an equal volume of methanol. […] The supernatant was removed into a clean eppendorf tube and centrifuged again. […] The concentration of product detected from these assays was reported directly.

B. adolescentis BSH = test: Target validation and off-target profiling in B. adolescentis using 7-N3; format: cell-based, Bifidobacterium adolescentis L2-32
Experimental: Target Validation and Off-target Profiling in B. adolescentis using 7-N3. Pilot studies with 7-N3 were performed using B. adolescentis (Gram positive) and B. theta (Gram negative). We chose to use B. adolescentis due to the stronger total fluorescent signal detected by-in gel fluorescence. […] Cultures were allowed to grow anaerobically at 37° C. for 21 h. 10 μM 7-N3 (10 mM stock in DMSO) or […] DMSO (to control tubes) was then added to the cultures and incubated anaerobically at 37° C. for 1 h. The cultures were centrifuged at 2,500 g at 4° C. for 15 mins. The media was decanted and cells were resuspended in PBS containing 1 mM TCEP and 1 mM PMSF and centrifuged 4,200 rpm at 4° C. for 15 mins. The buffer was decanted and the cells were suspended in 300 μL of fresh buffer and transferred to homogenizing tubes (Precellys lysing kit tough micro-organism lysing VK05 tubes) with ceramic beads. The suspension was then homogenized (5000 speed for 90 s*2, 6500 speed for 60 s) and spun down for 20 min at 15,000 g at 4° C. The supernatant was removed and the concentration of proteins in the lysate was quantified by Bradford assay. The lysates were then subjected to click reaction as per “Click Chemistry for In-gel Fluorescence Imaging” for fluorescence imaging and “Click Chemistry for MS/MS on Bacterial Lysate” for mass spectrophotometer-based quantification and identification.
Cultures were allowed to grow anaerobically at 37° C. for 21 h. Decreasing concentrations of 7 were added to different tubes and the cultures were incubated anaerobically at 37° C. for 1 h. 10 μM 7-N3 was then added to the cultures and incubated anaerobically at 37° C. for an additional hour. The cultures were further processed as per the reported method in “Target Validation and Off-target Profiling in B. adolescentis using 7-N3” and “Click Chemistry for In-gel Fluorescence Imaging”.
Click Chemistry for In-gel Fluorescence Imaging. Click reactions were performed on 25 μL scale. Lysates (normalized to 1.5 mg/mL for both bacterial and mammalian cells) pretreated with 10 μM Compound 7-N3 were incubated with 100 μM fluor 488-alkyne (10 mM stock in DMSO), 100 μM CuBr (5 mM stock in DMSO), and 100 μM Tris[(1-benzyl-1H-1,2,3-triazol-4-yl)methyl]amine (5 mM stock in 4:1 t-BuOH:DMSO) for 1 h at 37° C. in the dark. 10 μL of 2×Laemmli buffer (containing 5% β-mercaptoethanol) was added to the reactions and the tubes were heated at 95° C. for 10 mins. 15 μL of the protein samples were then resolved by 10% SDS-PAGE. The ladder was diluted 100-fold and 10 μL was loaded. Gels were destained for 30 mins using 40% methanol, 50% acetic acid, 10% water and visualized using Bio-Rad ChemiDoc MP Imaging System. Gels were stained for 20 mins in Coomassie blue and destained for 2 h prior to imaging.
Click Chemistry for MS/MS on Bacterial Lysate. Click reactions were performed on 100 μL scale. Lysates (normalized to 1.3 mg/mL) pretreated with 10 μM 7-N3 were incubated with 100 μM desthiobiotin-PEG4-alkyne (10 mM stock in DMSO), 1 mM CuBr (50 mM stock in DMSO), and 1 mM Tris[(1-benzyl-1H-1,2,3-triazol-4-yl)methyl]amine (50 mM stock in 4:1 t-BuOH:DMSO) for 1 h at 37° C. The samples were then processed for further analysis as per “Proteomic Analysis of Click-Tagged Proteins”.
Proteomic Analysis of Click-Tagged Proteins.

NCI-H716 cells = test: Off-target profiling in mammalian cells using 7-N3; format: cell-based, human
Experimental: Off-Target profiling in Mammalian Cells using 7-N3. The human epithelial cell line NCI-H716 was used to study interactions with mammalian proteins. 10 μM 7-N3 (10 mM stock in DMSO) or 1 uL DMSO (for control) were added to ˜8×10^6 cells in 1 ml DPBS (HiMedia) and incubated for 1 h. Cells were collected in 15 ml Falcon tubes and washed 2 times in 15 ml DBPS by centrifugation at 500 g for 5 mins. A 3rd wash by centrifugation was performed in 1 mM solution of cOmplete™ Protease Inhibitor Cocktail (Roche, Switzerland) in DPBS. Cells were resuspended in 250 ul of DPBS with 1 mM cOmplete™ Protease Inhibitor Cocktail and sonicated at 50% amplitude for 2 secs followed by 30 secs on ice for 3 cycles. The lysate was centrifuged at 15,000 g for 15 mins at 4° C. The supernatant was removed and protein concentration was measured by Bradford assay. The lysates were then subjected to click reaction as per “Click Chemistry for In-gel Fluorescence Imaging” for in-gel fluorescence and “Click Chemistry for MS/MS on Mammalian Lysate” for mass spectrophotometer-based quantification and identification.
Click Chemistry for In-gel Fluorescence Imaging. Click reactions were performed on 25 μL scale. […]
Proteomic Analysis of Click-Tagged Proteins. […] Indicated bands were excised, subjected to in-gel digestion, and extracted peptides analyzed by nanoflow LC-MS/MS as described.^53

C57BL/6 mice [3] = details: mouse, in vivo
Experimental: Animal Studies. C57BL/6 mice obtained from Jackson laboratories were maintained under a strict 12 h/12 h light/dark cycle and a constant temperature (21±1° C.) and humidity (55-65%). All experiments were conducted on 8-9 week old male mice.
Mice were fed powdered standard chow diet (LabDiet, catalog no. 5053) for the duration of the experiment. Mice were split into two groups of ten mice each and were maintained on powdered chow (control group) or fed powdered chow containing 0.09% (w/w) GR-7 (experimental group). Feces from these mice were collected as described above at 8 h. Mice were euthanized after 30 hours of access to the powdered chow with or without GR-7 using carbon dioxide. Blood samples were collected by cardiac puncture and placed in EDTA-coated tubes on ice. The liver and cecal contents were then collected from each mouse, snap frozen in liquid nitrogen, and stored at −80° C. until further analysis. […]
BSH Activity in Feces. BSH activity in fecal pellets were quantified using a modified version of a published method.^45 Fecal pellets (approximately 10-20 mg) were suspended in buffer (10% PBS, 90% sodium acetate at pH 5.2) containing 100 μM (GCDCA-d4) to obtain a concentration of 20 mg/mL. […] The concentration of product detected from these assays were reported directly.
Quantification of Bile Acids in Tissues and Plasma. […]
Quantification of bacterial 16S rDNA copy number. […]

[4] = tested on: differentiated Caco-2 cells; test: Epithelial permeability assay (4 kDa FITC-dextran)

## C[C@H](CCC(=O)CF)[C@H]1CC[C@H]2[C@@H]3CC[C@@H]4C[C@H](OS(=O)(=O)O)CC[C@]4(C)[C@H]3CC[C@]12C [Compound 3S-LCA-FMK, 3-sulfated-lithocholic acid-fluoromethyl ketone]
Conventional mice
  food intake: significant decrease in food consumption; also recorded: reduces food intake
C57BL/6 mice [1]; 0.03% weight/weight in chow ad libitum for 7 days
  BSH activity in feces: significantly reduced
C57BL/6 mice [1]; male, C57Bl/6, mouse
  detection in circulating plasma: No 3S-LCA-FMK was detectable
C57BL/6 mice [1]; mouse
  detection in circulating plasma: not detectable

## C[C@H](CCC(=O)CF)[C@H]1CC[C@H]2[C@@H]3[C@H](O)C[C@@H]4C[C@H](N=[N+]=[N-])CC[C@]4(C)[C@H]3CC[C@]12C [Compound 7-N3]
[2]; 7-N3, concentration not given
  BSH inhibition in conventional mouse feces (in words): significant BSH inhibition; also recorded: potently inhibited BSH activity in mouse feces
B. adolescentis BSH; 10 μM, 1 hour, click with Fluor 488-alkyne
  in-gel fluorescence labeling in B. adolescentis L2-32: labeling of only one protein; also recorded: Only one fluorescent band was visible
B. adolescentis BSH; desthiobiotin-alkyne, streptavidin pulldown, in-gel digestion, LC-MS/MS, semi-quantitative
  enrichment of BSH in gel bands, probe- versus vehicle-treated cultures: 4.5 fold
B. adolescentis BSH; label-free LC-MS/MS, biological triplicate
  enrichment of other bacterial proteins: ≤ 2 fold
B. adolescentis BSH; on-bead digestion, label-free LC-MS/MS
  enrichment of BSH in probe-treated cultures: 3.6 fold
NCI-H716 cells; 10 μM, 1 h, click with Fluor 488-alkyne
  in-gel fluorescence labeling in NCI-H716 cells: no significant labeling of proteins; also recorded: no enrichment of any band
NCI-H716 cells; label-free LC-MS/MS
  enrichment of proteins in probe-treated NCI-H716 lysates: ≤ 2 fold

## C[C@H](CCC(=O)CF)[C@H]1CC[C@H]2[C@@H]3[C@H](O)C[C@@H]4C[C@H](OS(=O)(=O)[O-])CC[C@]4(C)[C@H]3CC[C@]12C.[Na+] [GR-7]
[2]; 20 μM or 60 μM of GR-7, 30 mins, GCDCA-d4 100 μM, 18 hours
  BSH inhibition in mouse fecal slurry (in words): remains a potent pan-BSH inhibitor; also recorded: inhibited BSH activity in a fecal slurry
C57BL/6 mice [3]
  detection in feces: detected
  microbial biomass (16S rDNA copies/g in cecal contents): did not affect microbial biomass
[4]; 60 μM
  epithelial barrier integrity of Caco-2 cells: did not affect epithelial barrier integrity
[4]; differentiated Caco-2, apical chamber, 6 or 12 h
  epithelial monolayer integrity (passive diffusion of 4 kDa FITC-dextran): did not compromise epithelial monolayer integrity
